Assay: Inhibition of HIV1 3B reverse transcriptase activity infected in human H9 cells assessed as level of p24 antigen

For CC1(C)O[C@H]2CC(=O)OC[C@]23[C@H]2CC[C@@]4(C)[C@H](c5ccoc5)OC(=O)[C@H]5O[C@]54[C@]2(C)C(=O)C[C@@H]13 [Limonin], the IC50 was 4.48 nM.
